# Reference: article PMC6804079, “Investigation of 5’-Norcarbocyclic Nucleoside Analogues as Antiprotozoal and Antibacterial Agents” (Molecules, 2019)
# “And” between values parts separate entries of the source, which are not always exact repeats. Equal values may be shown once.
# Tests used:
# [1] = system: T. b. brucei strain Lister 427 (s427-WT); assay: resazurin EC50 assay, T. b. brucei wild-type bloodstream forms; format: cell-based, Trypanosoma brucei brucei; conditions: Trypanosoma brucei, 72 h, 48 h + 24 h resazurin, average and SEM, at least three determinations, NE = no effect on cell viability at 100 µM
# T. brucei B48 = assay: microbe, parasite or virus in culture; format: cell-based, Trypanosoma brucei brucei; conditions: Trypanosoma brucei, read-out: T. Brucei, EC50, B48
# T. brucei 2T1 PYR6-5 −/− = assay: microbe, parasite or virus in culture; format: cell-based, Trypanosoma brucei brucei; conditions: Trypanosoma brucei, read-out: T. Brucei, EC50, 2T1 PYR6-5 −/−
# Tbb-5FURes = assay: microbe, parasite or virus in culture; format: cell-based, Trypanosoma brucei brucei; conditions: Trypanosoma brucei, read-out: T. Brucei, EC50, Tbb-5FURes
# U-937 cells = assay: U-937 cytotoxicity (XTT); format: cell-based; conditions: 6 days incubation
# Description: The U-937 cells used in the cytotoxicity evaluation were obtained from the AIDS Research and Reference Program. The cells were cultured as indicated by the supplier in RPMI-1640 supplemented with 10% heat inactivated FBS, 1% penicillin/streptomycin solution, and 1% L-glutamine.
# U-937 cells plated at 2.5 × 10^3 cells/well in a volume of 100 µL were incubated with serially diluted test compounds in a volume of 100 µL for 6 days at 37 °C/5% CO2. Following the incubation, the cells were stained by adding 50 μL tetrazolium dye XTT (Sigma) solution at 5 mg/mL to determine cellular viability and read at 460/650 nm on a spectrophotometer. Toxicity values were calculated using linear regression analysis.
# [2] = system: M. tuberculosis ATCC 25,177 (H37Ra); assay: microbe, parasite or virus in culture; format: cell-based, Mycobacterium tuberculosis; conditions: Mycobacterium tuberculosis, read-out: M. Tuberculosis 25,177 MIC
# M. tuberculosis H37Rv = assay: microbe, parasite or virus in culture; format: cell-based; conditions: Mycobacterium tuberculosis, control drugs at critical concentrations
# M. tuberculosis MS-115 = assay: microbe, parasite or virus in culture; format: cell-based; conditions: Mycobacterium tuberculosis, MS115, read-out: M. Tuberculosis MS-115 MIC
# [3] = system: Trypanosoma and Leishmania; design: method as in PMID 28571825; conditions: equivalent activity against both pathogens; cited from earlier work
# [4] = system: L. mexicana 5FURes (Lmex5FURes); assay: microbe, parasite or virus in culture; conditions: Leishmania mexicana, read-out: L. Mexicana 5FUR, EC50
# Description: Promastigotes of Leishmania mexicana strain MNY/BZ/62/M379 was cultured in a minimal essential medium, HO-MEMO-MEME, supplemented with 10% FBS and 1% of a penicillin/streptomycin solution (Gibco) as described previously [39] at 25 °C. The L. mexicana 5FURes strain was the same strain but adapted in vitro to high levels of 5FU exactly as described for T. brucei [12].
# The resazurin assay for L. mexicana promastigotes was performed exactly as for T. b. brucei, except that incubation times of 72 and 48 h were used before and after the addition of resazurin, respectively, due to the slower metabolism of the dye by Leishmania promastigotes [42].
compound,measurement,setting,value
"CCCCCCCCCCCCC#Cc1cn([C@H]2C=C[C@@H](O)C2)c(=O)n([C@H]2C=C[C@@H](O)C2)c1=O [Compound 1, 1-[4′-Hydroxy-2′-cyclopenten-1′-yl]-3-(4′′-hydroxy-2′′-cyclopent-en-1′′-yl)-5-tetradecynyluracil]",EC50,[1],8 ± 0.1 µM
same,EC50,T. brucei B48,9 ± 0.1 µM
same,EC50,T. brucei 2T1 PYR6-5 −/−,9.2 ± 0.4 µM
same,EC50,Tbb-5FURes,7.5 ± 0.1 µM
same,U-937 Cells TC50,U-937 cells,66.3 µM
same,MIC,[2],250 µM and 117 µg/mL
same,MIC,M. tuberculosis H37Rv,50 µg/mL
same,MIC,M. tuberculosis MS-115,> 50 µg/mL
same,EC50,[3],8 to 11.9 µM
same,EC50,[4],11.4 ± 0.3 µM
